The test system of one series is L. betulinus P2O. The experiment in a line: Relative activities of L. betulinus P2O on pyranose substrates. The conditions noted are these: 20 mM substrate; D-glucose = 100. It counts as biochemical. The protocol:
The resulting clear yellow supernatant was further purified using DEAE chromatography in 30 mM TRIS-HCl, pH 8.5, and eluted from the 5×16 cm column using a 0-300 mM NaCl gradient. The protein eluted at about 75 mM NaCl. Fractions containing the peak of P2O activity were pooled and concentrated to 0.5 ml by Amicon PM30 ultrafiltration, and then fractionated, according to native molecular weight, using a 1.5×95 cm Biogel P300 column. The column was run at a flow rate of 0.1 ml per minute, using 100 mM sodium phosphate, pH 7.0. The protein eluted in a fraction corresponding to an apparent native molecular weight of about 300,000 daltons. […] Based on the molecular weight data, the protein appears to be a homotetramer.
The enzyme contains a covalently attached flavin on each subunit, and has absorption maxima at 275, 360, and 450 nm. The relative activities of the purified enzyme on the pyranose substrates D-glucose, L-sorbose, D-xylose and delta-D-gluconolactone are 100: 43: 43: 26, respectively, at 20 mM substrate concentration. The enzyme has a broad pH optimum between about 5 and 6.

The target of another series is T1, C. versicolor P2O (Trametes versicolor, UniProt P79076).
T1 construct: A single band having a molecular weight of about 65,000 was observed when the enzyme was analyzed by SDS-PAGE; made in house; host or cells: C. versicolor itself (native producer; high-producer culture selected from NRRL 15152 / CMCC 0748)
The series can be described thus: Relative activities of C. versicolor P2O on pyranose substrates. It counts as biochemical. As to conditions: 1% (w/v) substrate; D-glucose = 100. The protocol: The enzyme was applied to a 2.6×40 cm DEAE column, washed, and eluted using a 0-300 mM NaCl gradient. The P2O elutes at about 220 mM. Portions of each fraction were assayed for P2O activity, by monitoring peroxide generation conventionally. Protein concentration was also determined by a conventional method. The fractions containing P2O activity were pooled and concentrated by ultrafiltration with an Amicon PM10 filter obtained from Amicon Corp. Peak fractions were dialyzed into 30 mM sodium acetate (pH 5.5), adjusted to 1.5M NaCl and loaded onto a phenylsepharose column. The P2O was eluted with a 0-1.5M NaCl gradient in 50 mM sodium acetate, pH 5.5. The enzyme eluted at about 1.1M NaCl. Fractions containing the peak activity were pooled and concentrated to 0.5 ml by Amicon PM30 ultrafiltration and sized according to native molecular weight using a 1.5×95 cm Biogel P300 column. Elution was at 0.1 ml/minute with 100 mM sodium phosphate, pH 7.0. Using known molecular weight markers in the column, the enzyme's apparent native molecular weight was calculated to be about 130,000 daltons. A single band having a molecular weight of about 65,000 was observed when the enzyme was analyzed by SDS-PAGE. The enzyme thus appears to be a homodimer. The enzyme was judged to be about 95% pure, based on the staining intensity of protein bands in SDS-PAGE.
The relative activities of the enzyme on the substrates D-glucose, L-sorbose, D-xylose and delta-D-gluconolactone are 100: 74: 41: 6, respectively, at 1% (w/v) substrate concentration. The enzyme has a pH optimum of about 5.0.

A further series relates to P. obtusus P2O. The series can be described thus: Relative activities of P. obtusus P2O on pyranose substrates. As to conditions: about 1% (w/v) substrate; D-glucose = 100. It counts as biochemical. The protocol:
The P2O enzyme preparation from Example II was purified further using DEAE chromatography in 30 mM TRIS-HCl, pH 8.5, containing 2 mM EDTA and 10 ug/ml PMSF. The sample was eluted from a 5×16 cm column using a gradient of 0-300 mM NaCl. P2O activity was monitored using the orthodianisidine colorometric assay for the peroxide co-product, essentially as described by Ruelius et al., Biochim et Biophys. Acta 167, 493-500 (1968). P2O activity eluted at about 50 mM NaCl. Fractions containing the peak activity were pooled and concentrated to 0.5 ml by ultrafiltration using Amicon filters obtained from Amicon Corp. (Danvers, MA). Biogel P300 was obtained from Biorad Laboratories (Richmond, CA). The sample was further purified by molecular sieve chromatography using a 1.5×95 cm Biogel P300 column in 100 mM sodium phosphate, pH 7 buffer. The P2O activity eluted at a sharp peak corresponding to an apparent native molecular weight of about 290,000 daltons.
The enzyme appears to contain one covalently bound flavin molecule per subunit (detectable as UV-fluorescence in the 68,000 dalton SDS-PAGE band), and has absorption maxima at 276, 357 and 456 nm. The enzyme has a sedimentation coefficient of about 11.4, as determined by sucrose gradient ultracentrifugation. The relative activities of the enzyme, on D-glucose, L-sorbose, D-xylose, and D-gluconolactone are 100: 80: 48: 12, respectively, at about 1% (w/v) substrate concentration. As noted above with respect to FIG. 2, the enzyme has a broad pH optimum of between about 4.5 and 5.5.

The nature of series [1]: Nonenzymatic breakdown of glucosone (UV scan). It counts as physicochemical. As to conditions: 0.5% solution. The text has this:
Secondly, studies indicate that pure glucosone undergoes relatively rapid, nonenzymatic breakdown above a pH of about 7.0. In one experiment, a 0.5% solution of highly purified glucosone (prepared by enzymatic conversion of glucose by a purified P. obtusus P2O enzyme at pH 4.4) was brought to pH 7.0 in a buffered solution. Immediately thereafter, the solution was scanned spectrophotometrically in the UV range between 200 and 350 nm, at one minute intervals.

Series [2] in a line: Glucosone breakdown on control of reaction pH by base addition. It counts as physicochemical. The conditions noted are these: NaOH versus buffer such as 1M sodium bicarbonate or 1M TRIS-HCl. The protocol: Attempts to control reaction pH by the periodic addition of base have not been entirely successful. […] Therefore, in order to reduce glucosone breakdown, the base must be added in a manner which minimizes local regions of high pH in the solution. […] Introduction of the buffer with rapid mixing further reduces glucosone breakdown, presumably by reducing locally-elevated pH levels which occur when the buffer is added. It was noted above that even pH's in the range of 7.0 can lead to relatively rapid nonenzymatic glucosone breakdown. Ideally therefore, where high purity and yield are desired, one would like to avoid adding base to the reaction to offset the buildup of acidic by-products.

The conditions of series [3]: Ericsson et al. and Lindberg et al.; cited from earlier work.

For the molecule `O=C1O[C@H](CO)[C@@H](O)[C@H](O)[C@H]1O` [delta-D-gluconolactone], the “relative activity of L. betulinus P2O on substrate” value with L. betulinus P2O was determined as 26. The “relative activity of C. versicolor P2O on substrate” value on C. versicolor P2O is reported as 6. Further, the “relative activity of P. obtusus P2O on substrate” value with P. obtusus P2O is recorded as 12.
`O=CC(=O)[C@@H](O)[C@H](O)[C@H](O)CO` [glucosone, D-arabino-2-hexosulose]: the “310 nm peak (nonenzymatic breakdown)” value in series [1] (pH 6.0, several minutes) is recorded as “no initial peak at 310 nm was observed nor did one form”. For the same molecule, the “increase of 310 nm peak (nonenzymatic breakdown)” value in series [1] (pH 7.0, five minute period) is listed as “increasing several-fold”. In series [2], the “glucosone breakdown with periodic NaOH addition” value is recorded as “more glucosone breakdown”. Moreover, the “stability under alkaline conditions” value in series [3] is “breaks down under alkaline conditions”.
With `OC1OC[C@@H](O)[C@H](O)[C@H]1O` (stereo partly drawn) [D-xylose], the “relative activity of L. betulinus P2O on substrate” value in the series on L. betulinus P2O is 43. Besides, on C. versicolor P2O, the “relative activity of C. versicolor P2O on substrate” value is listed as 41. For the same molecule, the “relative activity of P. obtusus P2O on substrate” value with P. obtusus P2O is recorded as 48.
For `OC[C@H]1OC(O)[C@H](O)[C@@H](O)[C@@H]1O` (stereo partly drawn) [D-glucose], in that order: 100, 100 and 100.
For `O=C(CO)[C@@H](O)[C@H](O)[C@@H](O)CO` [L-sorbose] the same measures were 43, 74 and 80.

(Values after patent US4569915A, “P. obtusus strain” (Cetus Corporation, priority 1984, dated 1986).)
